Results from the supplement of paper PMC10307832.

Compound: COc1cc(Nc2ncc(F)c(Nc3ccc4c(n3)NC(=O)C(C)(C)O4)n2)cc(OC)c1OC [R406] + CCNC(=O)c1noc(-c2cc(C(C)C)c(O)cc2O)c1-c1ccc(CN2CCOCC2)cc1 [Luminespib] (partner 0.01 µM)
Assay: relative viability (nuclei count vs DMSO), 5 days (fraction); higher = more cells survive
Details: first compound 0.08 µM
Outline: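 A single step with final 0.05% Triton X-100, 1% formaldehyde and 1 ug/ml Hoechst fixed the cells and stained nuclei 5 days after treatment. Lung cancer cell lines in 1536-well plates had been treated by pin tool the day after seeding with one drug alone or a fixed anchor-drug dose plus five library-drug doses (not always all listed) in √10 steps, and nuclei were counted on 4× images. Relative viability is the ratio of nuclei in treated wells to nuclei in vehicle wells, taken as the median of duplicate plates.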

| Cell Line | relative viability |
| --- | --- |
| NCI-H1793 | 0.145 |
| NCI-H2405 | 0.651 |
| HOP-62 | 0.858 |
| SK-MES-1 | 0.863 |
| LU99A | 0.232 |
| BEN | 0.365 |
| HARA | 0.51 |
| SW 900 | 0.18 |
| NCI-H322M | 0.791 |
| LCLC-97TM1 | 0.771 |
| NCI-H2009 | 1.05 |
| A-427 | 0.929 |
| NCI-H460 | 0.0325 |
| NCI-H727 | 0.351 |
| NCI-H1734 | 0.196 |
| NCI-H520 | 0.225 |
| NCI-H2347 | 0.521 |

| Cell Line | relative viability |
| --- | --- |
| SW 1573 | 0.396 |
| NCI-H1395 | 0.502 |
| 201T | 1.08 |
| NCI-H1915 | 0.819 |
| HCC-827 | 0.772 |
| LXF-289 | 0.629 |
| NCI-H23 | 0.217 |
| NCI-H650 | 0.81 |
| CAL-12T | 0.57 |
| NCI-H1651 | 1.07 |
| EPLC-272H | 0.259 |
| NCI-H2228 | 0.145 |
| NCI-H1355 | 0.713 |
| NCI-H3122 | 0.114 |
| NCI-H1437 | 1.14 |
| NCI-H1755 | 0.351 |
| NCI-H2023 | 0.807 |

Same assay, conditions: first compound 0.253 µM

| Cell Line | relative viability |
| --- | --- |
| NCI-H1793 | 0.148 |
| NCI-H2405 | 0.954 |
| HOP-62 | 1.01 |
| SK-MES-1 | 0.858 |
| LU99A | 0.27 |
| BEN | 0.343 |
| HARA | 0.638 |
| SW 900 | 0.186 |
| NCI-H322M | 0.827 |
| LCLC-97TM1 | 0.883 |
| NCI-H2009 | 1.09 |
| A-427 | 1 |
| NCI-H460 | 0.0281 |
| NCI-H727 | 0.521 |
| NCI-H1734 | 0.193 |
| NCI-H520 | 0.25 |
| NCI-H2347 | 0.16 |

| Cell Line | relative viability |
| --- | --- |
| SW 1573 | 0.44 |
| NCI-H1395 | 0.725 |
| 201T | 1.06 |
| NCI-H1915 | 0.886 |
| HCC-827 | 0.385 |
| LXF-289 | 0.733 |
| NCI-H23 | 0.251 |
| NCI-H650 | 0.878 |
| CAL-12T | 0.516 |
| NCI-H1651 | 1.2 |
| EPLC-272H | 0.264 |
| NCI-H2228 | 0.213 |
| NCI-H1355 | 0.804 |
| NCI-H3122 | 0.116 |
| NCI-H1437 | 1.13 |
| NCI-H1755 | 0.459 |
| NCI-H2023 | 0.608 |

Same assay, conditions: first compound 0.8 µM

| Cell Line | relative viability |
| --- | --- |
| NCI-H1793 | 0.18 |
| NCI-H2405 | 0.766 |
| HOP-62 | 0.901 |
| SK-MES-1 | 0.957 |
| LU99A | 0.244 |
| BEN | 0.22 |
| HARA | 1.06 |
| SW 900 | 0.177 |
| NCI-H322M | 0.855 |
| LCLC-97TM1 | 0.72 |
| NCI-H2009 | 1.04 |
| A-427 | 1.04 |
| NCI-H460 | 0.0243 |
| NCI-H727 | 0.345 |
| NCI-H1734 | 0.207 |
| NCI-H520 | 0.293 |
| NCI-H2347 | 0.553 |

| Cell Line | relative viability |
| --- | --- |
| SW 1573 | 0.5 |
| NCI-H1395 | 0.71 |
| 201T | 1.07 |
| NCI-H1915 | 0.982 |
| HCC-827 | 0.563 |
| LXF-289 | 0.713 |
| NCI-H23 | 0.228 |
| NCI-H650 | 0.879 |
| CAL-12T | 0.52 |
| NCI-H1651 | 1.02 |
| EPLC-272H | 0.337 |
| NCI-H2228 | 0.103 |
| NCI-H1355 | 0.664 |
| NCI-H3122 | 0.132 |
| NCI-H1437 | 1.15 |
| NCI-H1755 | 0.255 |
| NCI-H2023 | 0.801 |

Same assay, conditions: first compound 2.53 µM

| Cell Line | relative viability |
| --- | --- |
| NCI-H1793 | 0.128 |
| NCI-H2405 | 0.26 |
| HOP-62 | 0.95 |
| SK-MES-1 | 0.232 |
| LU99A | 0.172 |
| BEN | 0.214 |
| HARA | 0.483 |
| SW 900 | 0.125 |
| NCI-H322M | 0.306 |
| LCLC-97TM1 | 0.571 |
| NCI-H2009 | 0.884 |
| A-427 | 0.398 |
| NCI-H460 | 0.023 |
| NCI-H1734 | 0.189 |
| NCI-H520 | 0.271 |
| NCI-H2347 | 0.307 |

| Cell Line | relative viability |
| --- | --- |
| SW 1573 | 0.161 |
| NCI-H1395 | 0.466 |
| 201T | 1 |
| HCC-827 | 0.334 |
| LXF-289 | 0.447 |
| NCI-H23 | 0.181 |
| NCI-H650 | 0.294 |
| CAL-12T | 0.124 |
| NCI-H1651 | 0.647 |
| EPLC-272H | 0.106 |
| NCI-H2228 | 0.0925 |
| NCI-H1355 | 0.497 |
| NCI-H1437 | 1.23 |
| NCI-H1755 | 0.211 |
| NCI-H2023 | 0.41 |

Same assay, conditions: first compound 8 µM

| Cell Line | relative viability |
| --- | --- |
| NCI-H1793 | 0.136 |
| NCI-H2405 | 0.241 |
| HOP-62 | 0.947 |
| SK-MES-1 | 0.137 |
| LU99A | 0.221 |
| BEN | 0.392 |
| HARA | 0.193 |
| SW 900 | 0.117 |
| NCI-H322M | 0.35 |
| LCLC-97TM1 | 0.291 |
| NCI-H2009 | 0.993 |
| A-427 | 0.593 |
| NCI-H460 | 0.0248 |
| NCI-H727 | 0.323 |
| NCI-H1734 | 0.16 |
| NCI-H520 | 0.226 |
| NCI-H2347 | 0.272 |
| SW 1573 | 0.107 |
| NCI-H1395 | 0.355 |
| 201T | 0.655 |
| NCI-H1915 | 0.624 |
| HCC-827 | 0.195 |
| LXF-289 | 0.405 |
| NCI-H23 | 0.168 |
| NCI-H650 | 0.487 |
| CAL-12T | 0.138 |
